Results reported in the kinase profiling compilation of Christmann-Franck et al. (2016).

Key:
Assay in all cases: KINOMEscan competition binding
Settings in all cases: compound 10.0 µM
TLK2 (human) = TLK2 (human) (UniProt Q86UE8)
PAK1 (human) = PAK1 (human) (UniProt Q13153)
[1] = system: FLT3 (human), P36888 [D835Y]
[2] = system: LRRK2 (human), Q5S007 [G2019S]
PRKCE (human) = PRKCE (human) (UniProt Q02156)
AURKC (human) = AURKC (human) (UniProt Q9UQB9)
CAMK2D (human) = CAMK2D (human) (UniProt Q13557)
NEK3 (human) = NEK3 (human) (UniProt P51956)
BRSK1 (human) = BRSK1 (human) (UniProt Q8TDC3)
NEK11 (human) = NEK11 (human) (UniProt Q8NG66)
DDR2 (human) = DDR2 (human) (UniProt Q16832)
MAP3K12 (human) = MAP3K12 (human) (UniProt Q12852)
TNNI3K (human) = TNNI3K (human) (UniProt Q59H18)
PDGFRB (human) = PDGFRB (human) (UniProt P09619)
NEK4 (human) = NEK4 (human) (UniProt P51957)
[3] = system: EGFR (human), P00533 [G719C]
MAP3K10 (human) = MAP3K10 (human) (UniProt Q02779)
RPS6KA1 KD1 (human) = RPS6KA1 KD1 (human) (UniProt Q15418)
CLK3 (human) = CLK3 (human) (UniProt P49761)
PHKG1 (human) = PHKG1 (human) (UniProt Q16816)
CDK9 (human) = CDK9 (human) (UniProt P50750)
MYO3A (human) = MYO3A (human) (UniProt Q8NEV4)
STK35 (human) = STK35 (human) (UniProt Q8TDR2)
PLK4 (human) = PLK4 (human) (UniProt O00444)
TTK (human) = TTK (human) (UniProt P33981)
PRKCH (human) = PRKCH (human) (UniProt P24723)
FLT3 (human) = FLT3 (human) (UniProt P36888)
STK38 (human) = STK38 (human) (UniProt Q15208)
MARK1 (human) = MARK1 (human) (UniProt Q9P0L2)
CDK17 (human) = CDK17 (human) (UniProt Q00537)
TXK (human) = TXK (human) (UniProt P42681)
PRKAA1 (human) = PRKAA1 (human) (UniProt Q13131)
[4] = system: FGFR3 (human), P22607 [G697C]
GRK1 (human) = GRK1 (human) (UniProt Q15835)
STK16 (human) = STK16 (human) (UniProt O75716)
ADCK3 (human) = ADCK3 (human) (UniProt Q8NI60)
MAPK3 (human) = MAPK3 (human) (UniProt P27361)
CDC42BPA (human) = CDC42BPA (human) (UniProt Q5VT25)
PRKD1 (human) = PRKD1 (human) (UniProt Q15139)
GRK4 (human) = GRK4 (human) (UniProt P32298)

DDR2 (human), sequence (Q16832 whole entry, looked up): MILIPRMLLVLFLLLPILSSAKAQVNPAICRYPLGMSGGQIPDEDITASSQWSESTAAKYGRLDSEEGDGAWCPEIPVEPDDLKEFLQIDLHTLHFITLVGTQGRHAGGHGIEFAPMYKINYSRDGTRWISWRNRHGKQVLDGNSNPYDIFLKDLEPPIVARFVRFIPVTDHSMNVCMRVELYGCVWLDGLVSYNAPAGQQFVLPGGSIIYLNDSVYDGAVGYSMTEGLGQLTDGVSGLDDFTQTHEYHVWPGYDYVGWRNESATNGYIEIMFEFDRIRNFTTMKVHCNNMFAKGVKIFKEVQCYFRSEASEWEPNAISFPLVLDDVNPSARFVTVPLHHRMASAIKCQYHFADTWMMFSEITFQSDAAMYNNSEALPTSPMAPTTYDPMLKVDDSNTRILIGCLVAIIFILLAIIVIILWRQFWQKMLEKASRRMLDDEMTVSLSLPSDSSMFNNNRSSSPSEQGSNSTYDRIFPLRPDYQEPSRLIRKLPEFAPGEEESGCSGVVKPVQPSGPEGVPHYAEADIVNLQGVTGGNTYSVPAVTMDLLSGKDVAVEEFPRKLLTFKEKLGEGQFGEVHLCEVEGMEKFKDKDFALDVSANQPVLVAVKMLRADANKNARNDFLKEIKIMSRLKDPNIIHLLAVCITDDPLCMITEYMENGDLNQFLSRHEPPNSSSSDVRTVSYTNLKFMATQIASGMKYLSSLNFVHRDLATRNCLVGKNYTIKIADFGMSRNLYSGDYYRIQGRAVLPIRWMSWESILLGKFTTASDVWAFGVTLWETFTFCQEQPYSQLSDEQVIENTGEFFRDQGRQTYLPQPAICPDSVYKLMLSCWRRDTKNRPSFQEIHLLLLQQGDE
CLK3 (human), sequence (P49761 whole entry, looked up): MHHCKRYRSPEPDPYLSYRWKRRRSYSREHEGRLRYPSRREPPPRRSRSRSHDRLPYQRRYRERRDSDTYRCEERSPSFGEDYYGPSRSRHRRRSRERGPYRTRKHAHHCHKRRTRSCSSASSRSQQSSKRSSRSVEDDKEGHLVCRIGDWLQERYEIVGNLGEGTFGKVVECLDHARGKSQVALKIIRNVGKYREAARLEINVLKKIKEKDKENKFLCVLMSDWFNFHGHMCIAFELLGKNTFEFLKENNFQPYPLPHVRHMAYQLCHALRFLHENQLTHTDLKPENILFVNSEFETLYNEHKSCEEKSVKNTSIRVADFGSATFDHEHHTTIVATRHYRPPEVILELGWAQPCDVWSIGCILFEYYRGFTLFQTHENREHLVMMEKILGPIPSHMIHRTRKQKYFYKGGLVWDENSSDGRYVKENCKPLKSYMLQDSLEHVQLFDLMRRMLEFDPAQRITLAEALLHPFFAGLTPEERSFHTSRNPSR
PRKD1 (human), sequence (Q15139 whole entry, looked up): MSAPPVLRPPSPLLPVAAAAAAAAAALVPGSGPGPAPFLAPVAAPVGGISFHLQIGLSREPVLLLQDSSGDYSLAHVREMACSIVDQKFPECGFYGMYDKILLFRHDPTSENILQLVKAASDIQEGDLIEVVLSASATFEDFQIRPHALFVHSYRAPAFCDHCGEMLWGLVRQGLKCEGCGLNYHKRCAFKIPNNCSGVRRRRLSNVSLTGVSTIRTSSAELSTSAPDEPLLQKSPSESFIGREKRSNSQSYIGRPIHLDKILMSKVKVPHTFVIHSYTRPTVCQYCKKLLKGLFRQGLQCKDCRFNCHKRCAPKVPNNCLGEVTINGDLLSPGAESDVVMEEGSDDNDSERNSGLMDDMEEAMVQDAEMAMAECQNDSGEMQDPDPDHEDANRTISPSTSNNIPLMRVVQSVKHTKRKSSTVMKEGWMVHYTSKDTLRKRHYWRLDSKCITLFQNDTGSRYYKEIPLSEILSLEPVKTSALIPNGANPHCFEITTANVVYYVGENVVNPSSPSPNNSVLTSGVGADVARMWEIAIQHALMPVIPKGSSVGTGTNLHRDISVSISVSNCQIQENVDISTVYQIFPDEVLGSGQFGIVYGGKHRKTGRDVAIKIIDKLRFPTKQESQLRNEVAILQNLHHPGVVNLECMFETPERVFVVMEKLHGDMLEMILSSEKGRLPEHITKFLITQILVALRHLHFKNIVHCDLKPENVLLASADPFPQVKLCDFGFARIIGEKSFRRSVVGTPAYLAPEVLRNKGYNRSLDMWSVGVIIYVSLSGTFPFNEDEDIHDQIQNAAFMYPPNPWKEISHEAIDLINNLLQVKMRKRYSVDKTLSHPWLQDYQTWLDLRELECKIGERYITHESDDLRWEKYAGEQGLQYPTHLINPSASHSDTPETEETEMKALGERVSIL
PRKAA1 (human), sequence (Q13131 whole entry, looked up): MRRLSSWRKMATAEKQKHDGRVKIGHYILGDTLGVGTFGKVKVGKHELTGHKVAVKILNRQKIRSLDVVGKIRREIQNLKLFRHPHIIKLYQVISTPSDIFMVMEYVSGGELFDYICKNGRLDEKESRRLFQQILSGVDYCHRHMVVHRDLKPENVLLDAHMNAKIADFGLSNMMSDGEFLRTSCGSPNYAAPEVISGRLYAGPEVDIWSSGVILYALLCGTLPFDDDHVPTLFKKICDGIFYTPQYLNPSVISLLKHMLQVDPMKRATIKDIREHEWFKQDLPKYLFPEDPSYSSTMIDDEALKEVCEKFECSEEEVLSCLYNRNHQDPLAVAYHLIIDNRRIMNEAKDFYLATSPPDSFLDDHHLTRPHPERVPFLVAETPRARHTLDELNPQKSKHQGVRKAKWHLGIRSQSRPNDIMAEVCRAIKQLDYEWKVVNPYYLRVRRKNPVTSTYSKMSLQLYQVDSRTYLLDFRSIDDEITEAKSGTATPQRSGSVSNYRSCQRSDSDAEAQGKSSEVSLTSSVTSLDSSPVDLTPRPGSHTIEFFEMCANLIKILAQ
PRKCH (human), sequence (P24723 whole entry, looked up): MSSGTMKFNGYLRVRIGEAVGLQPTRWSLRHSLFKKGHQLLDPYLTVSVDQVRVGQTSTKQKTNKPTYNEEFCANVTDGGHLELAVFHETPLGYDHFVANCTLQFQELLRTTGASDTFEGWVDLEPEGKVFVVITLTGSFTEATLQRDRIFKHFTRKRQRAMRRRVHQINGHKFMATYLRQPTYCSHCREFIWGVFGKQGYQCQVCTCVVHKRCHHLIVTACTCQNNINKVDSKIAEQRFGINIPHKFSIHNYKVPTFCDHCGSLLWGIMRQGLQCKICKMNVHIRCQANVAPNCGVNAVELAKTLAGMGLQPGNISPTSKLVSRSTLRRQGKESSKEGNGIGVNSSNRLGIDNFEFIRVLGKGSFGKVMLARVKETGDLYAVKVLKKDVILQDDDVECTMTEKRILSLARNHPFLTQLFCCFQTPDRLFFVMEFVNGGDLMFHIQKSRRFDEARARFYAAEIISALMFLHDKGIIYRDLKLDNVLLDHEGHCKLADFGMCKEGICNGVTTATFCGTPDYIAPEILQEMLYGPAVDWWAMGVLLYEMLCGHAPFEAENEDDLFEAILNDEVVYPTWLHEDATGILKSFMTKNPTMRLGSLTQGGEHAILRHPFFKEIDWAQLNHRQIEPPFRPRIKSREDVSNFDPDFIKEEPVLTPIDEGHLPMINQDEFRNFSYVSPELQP
STK35 (human), sequence (Q8TDR2 whole entry, looked up): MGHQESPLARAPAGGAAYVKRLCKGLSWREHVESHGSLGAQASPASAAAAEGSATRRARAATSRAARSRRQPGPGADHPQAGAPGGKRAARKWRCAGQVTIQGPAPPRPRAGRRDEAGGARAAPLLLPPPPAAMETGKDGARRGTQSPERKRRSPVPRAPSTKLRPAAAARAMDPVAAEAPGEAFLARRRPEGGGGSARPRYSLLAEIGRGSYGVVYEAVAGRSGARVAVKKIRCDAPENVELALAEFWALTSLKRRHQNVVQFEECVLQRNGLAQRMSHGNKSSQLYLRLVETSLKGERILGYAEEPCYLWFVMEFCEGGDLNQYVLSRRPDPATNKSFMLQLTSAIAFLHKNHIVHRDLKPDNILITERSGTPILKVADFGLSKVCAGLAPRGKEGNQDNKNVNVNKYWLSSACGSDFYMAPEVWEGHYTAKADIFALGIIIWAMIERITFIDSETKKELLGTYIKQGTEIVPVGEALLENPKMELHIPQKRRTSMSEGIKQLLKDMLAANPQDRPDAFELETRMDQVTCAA
PHKG1 (human), sequence (Q16816 whole entry, looked up): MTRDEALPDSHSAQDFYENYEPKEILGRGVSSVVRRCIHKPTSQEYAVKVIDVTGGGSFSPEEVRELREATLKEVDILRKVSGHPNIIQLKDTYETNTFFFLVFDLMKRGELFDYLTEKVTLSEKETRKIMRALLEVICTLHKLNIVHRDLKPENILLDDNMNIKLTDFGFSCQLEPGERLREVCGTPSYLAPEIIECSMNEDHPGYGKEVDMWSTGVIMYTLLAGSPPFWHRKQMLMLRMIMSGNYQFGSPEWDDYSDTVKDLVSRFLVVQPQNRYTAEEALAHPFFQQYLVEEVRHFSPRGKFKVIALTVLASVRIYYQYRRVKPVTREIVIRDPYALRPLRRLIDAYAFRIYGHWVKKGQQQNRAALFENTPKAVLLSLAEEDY
TXK (human), sequence (P42681 whole entry, looked up): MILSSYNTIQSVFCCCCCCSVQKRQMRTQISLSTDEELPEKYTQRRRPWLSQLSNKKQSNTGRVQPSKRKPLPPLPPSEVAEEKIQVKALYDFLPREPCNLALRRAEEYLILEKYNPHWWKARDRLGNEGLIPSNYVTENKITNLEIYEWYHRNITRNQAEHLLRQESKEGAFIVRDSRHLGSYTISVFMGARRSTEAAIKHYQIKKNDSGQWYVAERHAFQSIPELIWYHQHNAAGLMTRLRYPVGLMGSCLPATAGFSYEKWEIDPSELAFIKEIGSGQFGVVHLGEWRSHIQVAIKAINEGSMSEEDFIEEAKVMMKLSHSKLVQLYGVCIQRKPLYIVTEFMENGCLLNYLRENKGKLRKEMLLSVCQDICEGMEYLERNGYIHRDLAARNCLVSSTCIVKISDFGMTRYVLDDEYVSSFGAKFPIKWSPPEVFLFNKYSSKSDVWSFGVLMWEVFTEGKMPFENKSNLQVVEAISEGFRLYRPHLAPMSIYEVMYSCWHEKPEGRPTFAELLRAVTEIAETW

Structure (SMILES): CC1=C(C(=O)Nc2cc3cn[nH]c3cc2F)C(c2ccc(C(F)(F)F)cc2)CC(=O)N1 (stereo not given)
- kinase still bound, per cent of control (TLK2 (human)): 100%
- kinase still bound, per cent of control (PAK1 (human)): 81%
- kinase still bound, per cent of control [1]: 74%
- kinase still bound, per cent of control [2]: 70%
- kinase still bound, per cent of control (PRKCE (human)): 100%
- kinase still bound, per cent of control (AURKC (human)): 33%
- kinase still bound, per cent of control (CAMK2D (human)): 100%
- kinase still bound, per cent of control (NEK3 (human)): 100%
- kinase still bound, per cent of control (BRSK1 (human)): 93%
- kinase still bound, per cent of control (NEK11 (human)): 100%
- kinase still bound, per cent of control (DDR2 (human)): 100%
- kinase still bound, per cent of control (MAP3K12 (human)): 69%
- kinase still bound, per cent of control (TNNI3K (human)): 78%
- kinase still bound, per cent of control (PDGFRB (human)): 70%
- kinase still bound, per cent of control (NEK4 (human)): 85%
- kinase still bound, per cent of control [3]: 37%
- kinase still bound, per cent of control (MAP3K10 (human)): 92%
- kinase still bound, per cent of control (RPS6KA1 KD1 (human)): 72%
- kinase still bound, per cent of control (CLK3 (human)): 65%
- kinase still bound, per cent of control (PHKG1 (human)): 100%
- kinase still bound, per cent of control (CDK9 (human)): 96%
- kinase still bound, per cent of control (MYO3A (human)): 85%
- kinase still bound, per cent of control (STK35 (human)): 96%
- kinase still bound, per cent of control (PLK4 (human)): 86%
- kinase still bound, per cent of control (TTK (human)): 100%
- kinase still bound, per cent of control (PRKCH (human)): 35%
- kinase still bound, per cent of control (FLT3 (human)): 100%
- kinase still bound, per cent of control (STK38 (human)): 19%
- kinase still bound, per cent of control (MARK1 (human)): 100%
- kinase still bound, per cent of control (CDK17 (human)): 91%
- kinase still bound, per cent of control (TXK (human)): 83%
- kinase still bound, per cent of control (PRKAA1 (human)): 13%
- kinase still bound, per cent of control [4]: 84%
- kinase still bound, per cent of control (GRK1 (human)): 78%
- kinase still bound, per cent of control (STK16 (human)): 100%
- kinase still bound, per cent of control (ADCK3 (human)): 76%
- kinase still bound, per cent of control (MAPK3 (human)): 53%
- kinase still bound, per cent of control (CDC42BPA (human)): 79%
- kinase still bound, per cent of control (PRKD1 (human)): 76%
- kinase still bound, per cent of control (GRK4 (human)): 99%
